The test has as its target T1, ASGPR (Mus musculus, UniProt P24721+P34927).
T1 construct: host or cells: murine hepatocytes (primary, plated)
T1 sequence (P34927 1-284): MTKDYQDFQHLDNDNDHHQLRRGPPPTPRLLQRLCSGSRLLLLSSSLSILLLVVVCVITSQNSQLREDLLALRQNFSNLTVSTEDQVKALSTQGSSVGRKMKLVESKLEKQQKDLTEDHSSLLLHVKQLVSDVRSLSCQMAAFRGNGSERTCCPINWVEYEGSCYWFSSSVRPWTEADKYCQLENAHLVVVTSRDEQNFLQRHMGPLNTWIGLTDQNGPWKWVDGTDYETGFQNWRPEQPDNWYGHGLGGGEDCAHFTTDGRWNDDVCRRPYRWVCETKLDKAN
T1 sequence (P24721 1-301): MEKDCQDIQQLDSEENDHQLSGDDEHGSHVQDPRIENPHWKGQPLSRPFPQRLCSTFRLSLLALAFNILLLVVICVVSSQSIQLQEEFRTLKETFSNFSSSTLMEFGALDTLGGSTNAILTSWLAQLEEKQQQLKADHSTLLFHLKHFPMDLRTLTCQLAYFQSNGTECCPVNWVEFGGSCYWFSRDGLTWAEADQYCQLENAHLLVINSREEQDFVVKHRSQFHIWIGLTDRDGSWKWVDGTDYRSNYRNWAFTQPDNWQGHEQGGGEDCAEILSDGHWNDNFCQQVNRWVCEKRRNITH
Briefly: Binding strength of saccharide chain peptide and murine hepatocyte (competition with Eu-ASOR, time-resolved fluorescence). The conditions noted are these: for IC50: murine hepatocyte, Eu-ASOR 10 nM, 5 mM calcium chloride, 1 hr. The method, then:
With Eu-asialo-orosomucoid (Eu-ASOR) as reference material, the binding strength of saccharide chain peptide and murine hepatocyte is determined by comparing whether the binding degree of saccharide chain peptides, such as DCM-Lys(ah-GalNAc)3, DCM-Lys(Gah-GalNAc)3, DCM-Lys(ah-Lac)3, AHA-Asp[DCM-Lys(ah-Lac)3]2 with murine hepatocyte is higher than that of Eu-ASOR or not, in which the binding degree is expressed by IC50 (concentration of 50% inhibition), and the lower the IC50 is, the higher the binding degree is. The murine hepatocyte (from Lonza Biotechnology Company, Maryland) is plated in a 24-well plate in advance, and the reaction occurs in each well, into which (i) Eu-ASOR 10 nM (ii) hepatocyte basic medium with 5 mM calcium chloride, and (iii) five different concentrations of saccharide chain peptide of 1 uM-0.8 nM are added. After culturing under shaking for 1 hr, the substance that has not been bound to hepatocyte is removed by washing with the hepatocyte basic medium containing calcium chloride. Time-resolved fluorescence spectroscopy is preformed, that is, an enhancement solution (15
uM β-naphthoyl trifluoroacetone, 50 uM tri-n-octyl-phosphine oxide, 0.1 M potassium hydrogen phthalate, 0.1% Triton X-100 in 0.1 M acetic acid, pH 3.2) is added. The enhancement solution reacts with Eu^3+ to form a Eu chelate, which can emit a light of 615 nm when being excited at 340 nm. With the logarithm of the concentration of saccharide chain peptide as X axis, the emitted fluorescence value as Y axis, the fluorescence value without adding glycopeptide being set as 100%, the IC50 of each saccharide chain peptide can be calculated accordingly.

Results on 3 molecules are retold here after patent US20110097264A1, “RADIOLABELING METHOD USING MULTIVALENT GLYCOLIGANDS AS HEPATIC RECEPTOR IMAGING AGENT” (Institute of Nuclear Energy Research Atomic Energy Council, …, priority 2009, published 2011).

Structures are written as SMILES.

Turning to `NCCCCCC(=O)N[C@@H](CC(=O)NCCCC[C@@H](C(=O)NCCCCCCOC1O[C@H](CO)[C@@H](O[C@@H]2O[C@H](CO)[C@H](O)[C@H](O)[C@H]2O)[C@H](O)[C@H]1O)N(CC(=O)NCCCCCCOC1O[C@H](CO)[C@@H](O[C@@H]2O[C@H](CO)[C@H](O)[C@H](O)[C@H]2O)[C@H](O)[C@H]1O)CC(=O)NCCCCCCOC1O[C@H](CO)[C@@H](O[C@@H]2O[C@H](CO)[C@H](O)[C@H](O)[C@H]2O)[C@H](O)[C@H]1O)C(=O)NCCCC[C@@H](C(=O)NCCCCCCOC1O[C@H](CO)[C@@H](O[C@@H]2O[C@H](CO)[C@H](O)[C@H](O)[C@H]2O)[C@H](O)[C@H]1O)N(CC(=O)NCCCCCCOC1O[C@H](CO)[C@@H](O[C@@H]2O[C@H](CO)[C@H](O)[C@H](O)[C@H]2O)[C@H](O)[C@H]1O)CC(=O)NCCCCCCOC1O[C@H](CO)[C@@H](O[C@@H]2O[C@H](CO)[C@H](O)[C@H](O)[C@H]2O)[C@H](O)[C@H]1O` (stereo partly drawn) [AHA-Asp[DCM-Lys(ahLac)3]2, AHA-Asp[DCM-Lys(ah-Lac)3]2], the concentration for half-maximal inhibition (IC50) was determined as 10 nM.

As for `CC(=O)N[C@H]1[C@H](OCCCCCCNC(=O)CNC(=O)CN(CC(=O)NCC(=O)NCCCCCCO[C@@H]2O[C@H](CO)[C@H](O)[C@H](O)[C@H]2NC(C)=O)[C@@H](CCCCN)C(=O)NCC(=O)NCCCCCCO[C@@H]2O[C@H](CO)[C@H](O)[C@H](O)[C@H]2NC(C)=O)O[C@H](CO)[C@H](O)[C@@H]1O` [DCM-Lys(GahGalNAc)3], the “binding with ASGPR relative to YEE or YDD” value (compared with YEE or YDD, from Table 1) was 10 times.

On to `CC(=O)N[C@H]1[C@H](OCCCCCCNC(=O)CC[C@H](NC(=O)[C@H](CCC(=O)NCCCCCCO[C@@H]2O[C@H](CO)[C@H](O)[C@H](O)[C@H]2NC(C)=O)NC(=O)[C@@H](N)Cc2ccc(O)cc2)C(=O)NCCCCCCO[C@@H]2O[C@H](CO)[C@H](O)[C@H](O)[C@H]2NC(C)=O)O[C@H](CO)[C@H](O)[C@@H]1O` [YEE(ahGalNAc)3, reference compound], for which the 50% inhibitory concentration (IC50) was 10 nM.
